Test: Calibration of the Working Reagent at 660 nm (aqueous hemoglobin solutions)
Format: biochemical
Conditions: 2 minutes, 37° C.
Description: To prepare the solution-based assay composition, 14 mL of stock reagent B was poured into 1 mL of stock reagent A and mixed gently for 1-2 minutes by stirring. The combined A/B reagent was poured into 1 L of stock reagent C and mixed gently by stirring for approximately 30 minutes and allowed to stand at room temperature overnight prior to use. This prepared a working solution-based assay composition to be used as a working reagent.
A solution-based assay composition prepared according to Example 1 was used to calibrate its detectable color change having an absorbance at about 660 nm. Aqueous solutions of hemoglobin were prepared in the concentrations of 0.055, 0.060, 0.065, 0.068, 0.070, and 0.075 mg/dL. Twenty-one replicates of each hemoglobin solution were run using the following procedure.
The solution-based assay composition (or working reagent) and the hemoglobin solutions were equilibrated at room temperature before use. A 15 microliter sample of a hemoglobin solution and 250 microliters of the working reagent were transferred to the sample wheel of a Cobas-Bio autoanalyzer which was equilibrated at 37° C. The sample and the working reagent were mixed by rotation of the sample wheel. After the sample and working reagent were allowed to react for 2 minutes, the absorbance of the resulting solution was measured at 660 nm. The calibration curve shown in FIG. 1 was generated by plotting absorbance versus concentration data shown in Table 1 below and using standard regression analysis. This calibration curve can then be used to quantitatively assay the amount of hemoglobin in a bodily fluid.

HEMOGLOBIN
ABSORBANCE, 660 nm (hemoglobin 0.055 mg/dL, 15 microliter sample + 250 microliters working reagent): 0.1139
ABSORBANCE, 660 nm (hemoglobin 0.06 mg/dL): 0.1319
ABSORBANCE, 660 nm (hemoglobin 0.065 mg/dL): 0.1474
ABSORBANCE, 660 nm (hemoglobin 0.0675 mg/dL): 0.1557
ABSORBANCE, 660 nm (hemoglobin 0.070 mg/dL): 0.1719
ABSORBANCE, 660 nm (hemoglobin 0.075 mg/dL): 0.1877
